This note sets out measurements from PubChem BioAssay AID504344 (Broad Institute, 2011).

Test [1] in a line: caspase signal in Bax/Bak-deficient fibroblasts – cell-based, mouse embryonic fibroblasts, dry powder, set 2, counter-screen for Bcl2-A1 inhibitor project, dose response (AID 504344). The note with it: Bax/Bak-/- MEF caspase activation, CaspaseGlo luminescence, 3 h; at 35 µM (top of the series). In general terms: Counterscreens check selectivity or assay interference.
The subject of test [2] is Bax/Bak-/- MEF caspase activation, CaspaseGlo luminescence, 3 h. The description is as above.

The source made the active and inactive calls.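 Rule for the calls: active = fitted curve reaches 10% of the positive control caspase activation at or below the top valid tested dose; inactive = signal shifts the opposite way, plus the rest.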

Regarding `Cn1c(=O)c([N+](=O)[O-])c(Nc2ccc(Cl)cc2)c2ccccc21`, in test [1], the caspase activation was 0.654% (inactive).
The same measure, in the same setting: the same measure for `Cc1ccc(Sc2c([N+](=O)[O-])cnc3ccccc23)cc1`: 3.45% (inactive); for `CN1C(=O)C(C)(C)N(Cc2ccccc2)c2ccccc21`: -0.187% (inactive).
The same measure, in the same setting: the same measure for `Cn1c(=O)c([N+](=O)[O-])c(Oc2ccccc2)c2ccccc21`: 0.272% (inactive); for `CCSc1c([N+](=O)[O-])c(=O)oc2ccccc12`: 0.365% (inactive).
Take `CCOCCCNc1c([N+](=O)[O-])c(=O)n(C)c2ccccc12`: the caspase activation in test [1] was 0.166% (inactive).
Turning to `O=c1oc2ccccc2c(Cl)c1[N+](=O)[O-]`, the caspase activation in test [1] is -0.981% (inactive).
Still for that read-out and setting: the same measure for `Cc1ccc(Nc2c([N+](=O)[O-])c(=O)n(C)c3ccccc23)cc1`: 0.3% (inactive); for `Cc1ccc(Sc2cc(=O)n(C)c3ccccc23)cc1`: -0.817% (inactive); for `CCOC(=O)N1CCN(c2c([N+](=O)[O-])c(=O)n(C)c3ccccc23)CC1`: -0.062% (inactive).
Still for that read-out and setting: the figure for `Cc1ccc(Sc2c([N+](=O)[O-])c(=O)n(C)c3ccccc23)cc1` is 1.18% (inactive).
Turning to `O=c1oc2ccccc2c(Sc2ccccc2)c1[N+](=O)[O-]`, the caspase activation in test [1] is -0.438% (inactive).
As to `O=C(Oc1cccc(/C=N/Nc2nc(Nc3ccccc3)nc(N3CCOCC3)n2)c1)c1ccco1`, the caspase activation in test [1] is 0.026% (inactive).
The same measure, in the same setting: the same measure for `Cc1ccc(Nc2c([N+](=O)[O-])c(=O)oc3ccccc23)cc1`: -0.021% (inactive).
As for `Cc1ccc(Sc2c([N+](=O)[O-])c(=O)oc3ccccc23)cc1`, the AC10 in test [2] is > 35 µM (inactive).
As for `Cn1c(=O)c([N+](=O)[O-])c(-n2cnc3ccccc32)c2ccccc21`, the caspase activation in test [1] was 0.662% (inactive).
Same read-out and setting: the same measure for `O=c1oc2ccccc2c(N2CCCCC2)c1[N+](=O)[O-]`: -0.245% (inactive); for `C/C1=C/C(=O)O[C@@H]2C[C@@H](CC[C@H](C)/C=C\CC1)O[C@@](O)(C1CSC(=O)N1)C2` (stereo partly specified): 0.173% (inactive).
Turning to `O=[N+]([O-])c1cnc2ccccc2c1Sc1ccccc1`, the caspase activation in test [1] was 2.51% (inactive).
On to `O=c1oc2ccccc2c(Nc2cc(Cl)cc(Cl)c2)c1[N+](=O)[O-]`, for which the caspase activation in test [1] is -0.079% (inactive).
Same read-out and setting: the figure for `Cn1c(=O)c([N+](=O)[O-])c(Cl)c2ccccc21` is 0.515% (inactive).
